Test results taken from patent US9777020B2, “Furo-3-carboxamide derivatives and methods of use” (AbbVie Inc., priority 2014, dated 2017).

Biological target: TrkA (Homo sapiens (Human), UniProt P04629)
Experiment: TrkA kinase HTRF enzyme inhibition assay
Type: biochemical
Conditions: TrkA pre-incubated with 200 μM ATP
How it was run: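 TrkA (2-10 nM) pre-activated 20 min with 200 μM ATP in HEPES pH 7.4/Mg/Mn buffer, compound added for 10 min, then biotinylated LCK-analog peptide (125 nM) for 1 h at ambient temperature. HTRF phosphotyrosine detection (665/620 ratio); duplicate half-log dilutions, IC50 from initial-rate inhibition via equation 1.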

Sequence of TrkA (P04629 33-796): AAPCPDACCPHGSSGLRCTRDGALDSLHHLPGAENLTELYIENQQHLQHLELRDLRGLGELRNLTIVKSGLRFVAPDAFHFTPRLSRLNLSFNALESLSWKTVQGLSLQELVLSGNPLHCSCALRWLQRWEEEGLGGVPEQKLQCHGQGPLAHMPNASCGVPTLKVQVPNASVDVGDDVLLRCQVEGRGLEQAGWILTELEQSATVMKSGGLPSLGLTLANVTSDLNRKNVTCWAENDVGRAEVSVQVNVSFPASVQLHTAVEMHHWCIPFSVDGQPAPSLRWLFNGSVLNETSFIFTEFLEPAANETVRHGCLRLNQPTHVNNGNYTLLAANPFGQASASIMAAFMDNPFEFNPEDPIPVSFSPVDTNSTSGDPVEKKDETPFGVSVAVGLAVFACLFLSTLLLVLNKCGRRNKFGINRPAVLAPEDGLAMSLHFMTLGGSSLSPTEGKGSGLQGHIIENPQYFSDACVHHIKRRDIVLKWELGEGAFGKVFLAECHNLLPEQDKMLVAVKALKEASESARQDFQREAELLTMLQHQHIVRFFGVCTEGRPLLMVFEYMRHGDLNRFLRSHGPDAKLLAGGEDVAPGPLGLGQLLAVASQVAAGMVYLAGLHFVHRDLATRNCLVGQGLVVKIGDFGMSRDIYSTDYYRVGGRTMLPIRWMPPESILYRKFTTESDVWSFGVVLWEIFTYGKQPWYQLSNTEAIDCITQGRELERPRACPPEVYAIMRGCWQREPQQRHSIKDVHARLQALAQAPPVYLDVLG

SMILES | IC50 [nM]
COc1cc(N2CCN(C(=O)OC(C)(C)C)CC2)ccc1NC(=O)c1coc2c1C(=O)NCC2 [Example 5, tert-butyl 4-(3-methoxy-4-{[(4-oxo-4,5,6,7-tetrahydrofuro[3,2-c]pyridin-3-yl)carbonyl]amino}phenyl)piperazine-1-carboxylate] | 54.4
CC(C)Oc1nc(N2CCN(C(=O)N3CCOCC3)C[C@H]2CO)ccc1NC(=O)c1coc2c1C(=O)NC(C)(C)C2 [Example 135, N-{6-[(2S)-2-(hydroxymethyl)-4-(morpholin-4-ylcarbonyl)piperazin-1-yl]-2-isopropoxypyridin-3-yl}-6,6-dimethyl-4-oxo-4,5,6,7-tetrahydrofuro[3,2-c]pyridine-3-carboxamide] | 2.3
O=C(Nc1ccc2c(cnn2CCO)c1)c1coc2c1C(=O)NCC2 [Example 53, N-[1-(2-hydroxyethyl)-1H-indazol-5-yl]-4-oxo-4,5,6,7-tetrahydrofuro[3,2-c]pyridine-3-carboxamide] | 67.5
COC(=O)C1(C)CC(=O)c2c(C(=O)Nc3ccc4nn(C)cc4c3)coc2C1 (centres unmarked) [Example 163, methyl 6-methyl-3-[(2-methyl-2H-indazol-5-yl)carbamoyl]-4-oxo-4,5,6,7-tetrahydro-1-benzofuran-6-carboxylate] | 156
CCOc1nc(N2CCN(C(=NC#N)NC)CC2)ccc1NC(=O)c1coc2c1C(=O)NC1(CCC1)C2 [Example 118, N-{6-[4-(N′-cyano-N-methylcarbamimidoyl)piperazin-1-yl]-2-ethoxypyridin-3-yl}-4′-oxo-4′,7′-dihydro-5′H-spiro[cyclobutane-1,6′-furo[3,2-c]pyridine]-3′-carboxamide] | 3
COc1ccc(NC(=O)c2coc3c2C(=O)NCC3)cn1 [Example 41, N-(6-methoxypyridin-3-yl)-4-oxo-4,5,6,7-tetrahydrofuro[3,2-c]pyridine-3-carboxamide] | 1390
CCOc1nc(N2CCNCC2)ccc1NC(=O)c1coc2c1C(=O)NC(C)(C)C2 [Example 127, N-[2-ethoxy-6-(piperazin-1-yl)pyridin-3-yl]-6,6-dimethyl-4-oxo-4,5,6,7-tetrahydrofuro[3,2-c]pyridine-3-carboxamide] | 13.2
O=C(Nc1ccc2ncccc2c1)c1coc2c1C(=O)NCC2 [Example 33, 4-oxo-N-(quinolin-6-yl)-4,5,6,7-tetrahydrofuro[3,2-c]pyridine-3-carboxamide] | 111
CC(C)Oc1nc(N2CC[C@H](N(C)C)C2)ccc1NC(=O)c1coc2c1C(=O)NC(C)(C)C2 [Example 136, N-{6-[(3S)-3-(dimethylamino)pyrrolidin-1-yl]-2-isopropoxypyridin-3-yl}-6,6-dimethyl-4-oxo-4,5,6,7-tetrahydrofuro[3,2-c]pyridine-3-carboxamide] | 10.2
COc1nc(N2CC[C@@H]3CN(C)C[C@@H]32)ccc1NC(=O)c1coc2c1C(=O)NC(C)(C)C2 [Example 130, N-{2-methoxy-6-[(3aR,6aR)-5-methylhexahydropyrrolo[3,4-b]pyrrol-1 (2H)-yl]pyridin-3-yl}-6,6-dimethyl-4-oxo-4,5,6,7-tetrahydrofuro[3,2-c]pyridine-3-carboxamide] | 38.3
CN1CCc2occ(C(=O)Nc3ccc4c(cnn4C)c3)c2C1=O [Example 24, 5-methyl-N-(1-methyl-1H-indazol-5-yl)-4-oxo-4,5,6,7-tetrahydrofuro[3,2-c]pyridine-3-carboxamide] | 189
COc1cc(N2CCN(C(=O)OC(C)(C)C)CC2)ccc1NC(=O)c1coc2c1C(=O)CC(C)(CO)C2 (centres unmarked) [Example 165, tert-butyl 4-[4-({[6-(hydroxymethyl)-6-methyl-4-oxo-4,5,6,7-tetrahydro-1-benzofuran-3-yl]carbonyl}amino)-3-methoxyphenyl]piperazine-1-carboxylate] | 13.3
COc1ccc(NC(=O)c2coc3c2C(=O)N(C)CC3)c(OC)n1 [Example 65, N-(2,6-dimethoxypyridin-3-yl)-5-methyl-4-oxo-4,5,6,7-tetrahydrofuro[3,2-c]pyridine-3-carboxamide] | 146
CC(=O)N1CCN(c2ccc(NC(=O)c3coc4c3C(=O)CC(C)(C)C4)cc2)CC1 [Example 148, N-[4-(4-acetylpiperazin-1-yl)phenyl]-6,6-dimethyl-4-oxo-4,5,6,7-tetrahydro-1-benzofuran-3-carboxamide] | 32.4
Cc1ccc(NC(=O)c2coc3c2C(=O)NCC3)cc1 [Example 30, N-(4-methylphenyl)-4-oxo-4,5,6,7-tetrahydrofuro[3,2-c]pyridine-3-carboxamide] | 521
O=C(Nc1ccc2[nH]cnc2c1)c1coc2c1C(=O)NCC2 [Example 12, N-(1H-benzimidazol-5-yl)-4-oxo-4,5,6,7-tetrahydrofuro[3,2-c]pyridine-3-carboxamide] | 99.6

SMILES | IC50 [nM]
CC(C)Oc1nc(N2C[C@@H]3CCN(CCO)[C@@H]3C2)ccc1NC(=O)c1coc2c1C(=O)NC(C)(C)C2 [Example 131, N-{6-[(3aS,6aS)-1-(2-hydroxyethyl)hexahydropyrrolo[3,4-b]pyrrol-5(1H)-yl]-2-isopropoxypyridin-3-yl}-6,6-dimethyl-4-oxo-4,5,6,7-tetrahydrofuro[3,2-c]pyridine-3-carboxamide] | 98.1
CCOc1nc(N2CCN(C(C)=O)CC2)ccc1NC(=O)c1coc2c1C(=O)NCC2 [Example 19, N-[6-(4-acetylpiperazin-1-yl)-2-ethoxypyridin-3-yl]-4-oxo-4,5,6,7-tetrahydrofuro[3,2-c]pyridine-3-carboxamide] | 16.3
N#Cc1cccc(NC(=O)c2coc3c2C(=O)NCC3)c1 [Example 43, N-(3-cyanophenyl)-4-oxo-4,5,6,7-tetrahydrofuro[3,2-c]pyridine-3-carboxamide] | 5640
Cn1ncc2cc(NC(=O)c3coc4c3C(=O)NCC4)ccc21 [Example 11, N-(1-methyl-1H-indazol-5-yl)-4-oxo-4,5,6,7-tetrahydrofuro[3,2-c]pyridine-3-carboxamide] | 64
CCOc1nc(N2CCN(C(C)=O)CC2)ccc1NC(=O)c1coc2c1C(=O)N(CC(C)(C)OC(C)=O)CC2 [Example 103, 1-[3-{[6-(4-acetylpiperazin-1-yl)-2-ethoxypyridin-3-yl]carbamoyl}-4-oxo-6,7-dihydrofuro[3,2-c]pyridin-5(4H)-yl]-2-methylpropan-2-yl acetate] | 16.9
CCOc1nc(N2CCN(C(C)=O)CC2)ccc1NC(=O)c1coc2c1C(=O)N(CC(C)(C)O)CC2 [Example 104, N-[6-(4-acetylpiperazin-1-yl)-2-ethoxypyridin-3-yl]-5-(2-hydroxy-2-methylpropyl)-4-oxo-4,5,6,7-tetrahydrofuro[3,2-c]pyridine-3-carboxamide] | 6
CC1(C)CC(=O)c2c(C(=O)Nc3ccc4nn(CCO)cc4c3)coc2C1 [Example 153, N-[2-(2-hydroxyethyl)-2H-indazol-5-yl]-6,6-dimethyl-4-oxo-4,5,6,7-tetrahydro-1-benzofuran-3-carboxamide] | 45.6
Cn1cc2cc(NC(=O)c3coc4c3C(=O)CC(C)(C(N)=O)C4)ccc2n1 (centres unmarked) [Example 162, 6-methyl-N^3-(2-methyl-2H-indazol-5-yl)-4-oxo-4,5,6,7-tetrahydro-1-benzofuran-3,6-dicarboxamide] | 58
CCOc1nc(N2CCN(C(C)=O)CC2)ccc1NC(=O)c1coc2c1C(=O)N(C[C@H](C)O)CC2 [Example 97, N-[6-(4-acetylpiperazin-1-yl)-2-ethoxypyridin-3-yl]-5-[(2S)-2-hydroxypropyl]-4-oxo-4,5,6,7-tetrahydrofuro[3,2-c]pyridine-3-carboxamide] | 4.8
CC(O)Cn1cc2cc(NC(=O)c3coc4c3C(=O)NCC4)ccc2n1 (centres unmarked) [Example 55, N-[2-(2-hydroxypropyl)-2H-indazol-5-yl]-4-oxo-4,5,6,7-tetrahydrofuro[3,2-c]pyridine-3-carboxamide] | 20.8
CCOc1nc(N2CCN(C(C)=O)CC2)ccc1NC(=O)c1coc2c1C(=O)NC1(CCCCC1)C2 [Example 112, N-[6-(4-acetylpiperazin-1-yl)-2-ethoxypyridin-3-yl]-4′-oxo-4′,7′-dihydro-5′H-spiro[cyclohexane-1,6′-furo[3,2-c]pyridine]-3′-carboxamide] | 27.3
CC(=O)N1CCN(c2ccc(NC(=O)c3coc4c3C(=O)NC(C)(C)C4)c(OC(C)C)n2)[C@@H](CO)C1 [Example 139, N-{6-[(2R)-4-acetyl-2-(hydroxymethyl)piperazin-1-yl]-2-isopropoxypyridin-3-yl}-6,6-dimethyl-4-oxo-4,5,6,7-tetrahydrofuro[3,2-c]pyridine-3-carboxamide] | 2.4
CC(=O)N1CCN(c2ccc(NC(=O)c3coc4c3C(=O)N(CCOCc3ccccc3)CC4)c(OCCOCc3ccccc3)n2)CC1 [Example 86, N-{6-(4-acetylpiperazin-1-yl)-2-[2-(benzyloxy)ethoxy]pyridin-3-yl}-5-[2-(benzyloxy)ethyl]-4-oxo-4,5,6,7-tetrahydrofuro[3,2-c]pyridine-3-carboxamide] | 1320
Cc1n[nH]c2ccc(NC(=O)c3coc4c3C(=O)NCC4)cc12 [Example 45, N-(3-methyl-1H-indazol-5-yl)-4-oxo-4,5,6,7-tetrahydrofuro[3,2-c]pyridine-3-carboxamide] | 3480
COc1cc(N2CCNCC2)ccc1NC(=O)c1coc2c1C(=O)NC(C)(C)C2 [Example 120, N-[2-methoxy-4-(piperazin-1-yl)phenyl]-6,6-dimethyl-4-oxo-4,5,6,7-tetrahydrofuro[3,2-c]pyridine-3-carboxamide] | 28
CC(=O)N1CCN(c2ccc(NC(=O)c3coc4c3C(=O)NC(C)(C)C4)c(OC3CCOCC3)n2)CC1 [Example 180, N-[6-(4-acetylpiperazin-1-yl)-2-(tetrahydro-2H-pyran-4-yloxy)pyridin-3-yl]-6,6-dimethyl-4-oxo-4,5,6,7-tetrahydrofuro[3,2-c]pyridine-3-carboxamide] | 11
